The record followed here is US10806783B2, “Vaccine compositions” (priority 2014, dated 2020).

The test concerns Influenza virus. Type of test: in vivo. Particulars: Example 4, FIG. 3; BALB-c mice, subcutaneous, day 0 and day 21; various time points; 2 μg antigen, freeze-dried and stored at 45° C.

Molecules are shown by their SMILES.

`CN(C)CC(=O)O` [dimethylglycine, Dimethylglycine]: the “HIA titre (effect with different excipients)” value is “antigen sparing effect and acceleration of onset of immunity observed with polyethyleneimine are also observed”.
